Assay results: the NIST ThermoML archive (doi:10.1021/je5005752)

Assay: xn = mol fraction of the nth substance listed
Details: 101 kPa, Liquid; for viscosity: Falling or rolling sphere viscometry; for mass density: Vibrating tube method

CCCC(=O)OCC [ethyl butanoate] + CC(C)CO
Details	mass density, 288.15 K [kg/m3]	mass density, 293.15 K [kg/m3]	mass density, 298.15 K [kg/m3]	mass density, 303.15 K [kg/m3]	viscosity, 288.15 K [mPa·s]	viscosity, 293.15 K [mPa·s]	viscosity, 298.15 K [mPa·s]	viscosity, 303.15 K [mPa·s]
x1 = 0.1	816.01	811.92	807.82	803.67	2.899	2.51	2.19	1.92
x1 = 0.2001	825.5	821.21	816.89	812.54	2	1.768	1.571	1.406
x1 = 0.3001	834.2	829.72	825.21	820.68	1.516	1.363	1.233	1.118
x1 = 0.3999	842.57	837.92	833.26	828.56	1.24	1.129	1.032	0.9462
x1 = 0.5	850.43	845.64	840.84	836	1.057	0.9727	0.8977	0.8309
x1 = 0.5999	857.77	852.86	847.92	842.97	0.9319	0.8638	0.8022	0.7472
x1 = 0.7001	864.75	859.73	854.69	849.63	0.8287	0.7883	0.7366	0.6895
x1 = 0.8001	871.45	866.33	861.2	856.05	0.785	0.7356	0.6907	0.6488
x1 = 0.8997	877.93	872.73	867.52	862.29	0.7449	0.7006	0.6599	0.6217
x1 = 1	884.16	878.9	873.62	868.33	0.7224	0.6808	0.643	0.6072
